Read-outs that look alike come from different tables or passages of the source.

In test [1] the target is T1, CRBN (Homo sapiens, UniProt Q96SW2).
T1 construct: purchased Eurofins Discovery
The test is described as follows: CRBN binding assay (E3scan, Eurofins Discovery). As to the method: (§1) AURKA, AURKB and CRBN binding assays were performed by Eurofins Discovery using the KdELECT Kinase Assay Panel (AURKA and AURKB), or the E3scan Ligand Binding Assay Technology (CRBN). More information can be found on the Eurofins Discovery Web site.
(§2) Graphs were generated using GraphPad Prism Software (version 10.1.2) or RStudio (R-4.3.2). All dose–response curves were computed on GraphPad Prism using the Variable Slope (four parameters) equation. Absolute half-maximal degradation (DC50), growth inhibitory (GI50) and enzymatic inhibitory (IC50) concentrations, as well as inhibition constants (Ki) were derived from dose–response curves via interpolation. Statistical tests were performed on GraphPad Prism and detailed in the figure legends. Unless otherwise stated, “n” in the figure legends indicates the number of independent experiments conducted at different times.

The target of test [2] is T2, AURKA (Homo sapiens, UniProt O14965).
T2 sequence (O14965 1-403): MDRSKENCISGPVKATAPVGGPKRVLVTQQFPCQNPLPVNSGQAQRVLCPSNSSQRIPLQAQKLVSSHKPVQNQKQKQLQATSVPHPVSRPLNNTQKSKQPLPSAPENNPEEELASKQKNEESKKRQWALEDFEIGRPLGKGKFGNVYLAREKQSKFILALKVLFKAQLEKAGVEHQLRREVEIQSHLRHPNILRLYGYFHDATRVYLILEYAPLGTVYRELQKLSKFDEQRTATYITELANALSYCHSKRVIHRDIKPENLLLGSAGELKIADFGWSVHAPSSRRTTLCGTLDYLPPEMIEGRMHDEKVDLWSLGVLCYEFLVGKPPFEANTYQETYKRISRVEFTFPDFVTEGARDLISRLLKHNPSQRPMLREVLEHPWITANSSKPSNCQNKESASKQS
Kind of test: AURKA binding assay (KINOMEscan / KdELECT, Eurofins Discovery). The arrangement: purchased Eurofins Discovery. The conditions noted are these: for binding selectivity for AURKA over AURKB: Ki AURKB vs Ki AURKA. The procedure: as §1, §2

Test [3] relates to SJNB-8. Kind of test: IncuCyte live-cell imaging, antiproliferative effect. The class given is cell-based. The settings on record: Homo sapiens, 72 h, read-out: Cell GI50 72h, SJNB-8. A digest of the protocol: (§3)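 Cells seeded in 384-well plates (neuroblastoma 1200–5000, HEK293T 600 cells/well), adhered overnight, then compound-treated in duplicate or triplicate; confluency tracked by IncuCyte live-cell imaging. Normalized confluence averaged from 3 experiments; absolute GI50 interpolated from four-parameter variable-slope curves.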

The test system of test [4] is SK-N-AS. Described as above. The settings on record: Homo sapiens, 72 h, read-out: Cell GI50 72h. The class given is cell-based. A digest of the protocol: as §3
In test [5] the test system is SK-N-SH. The description is as above. The settings on record: Homo sapiens, 72 h, read-out: Cell GI50 72h. It counts as cell-based. A digest of the protocol: as §3
Test [6] concerns SK-N-BE(2)-C. Described as above. The conditions noted are these: 72 h; for GI50: Homo sapiens, SK-N-BE(2)-C, read-out: Cell GI50 72h; for growth-inhibitory activity upon cotreatment with tariquidar (in words): NGP, SJNB-8 and SK-N-BE(2)-C, 1 μM tariquidar. It counts as cell-based, human. An excerpt: Human neuroblastoma cell lines NGP, IMR-32, SJNB-8, SK-N-BE(2)-C, SJNB-1, SK-N-SH and SK-N-AS, as well as benign immortalized cell lines RPE and HEK293T were either bought commercially or obtained through research laboratories. […] Screening for mycoplasma contamination occurred routinely on the cells. Human neuroblastoma cell lines SH-SY5Y_shABCB1 & SH-SY5Y_shNTC were generated by transduction with pLKO.1-ABCB1_TRCN0000059683 shRNA (Sigma MISSION SHCLND) or pLKO.1-puro NT shRNA (Sigma MISSION SHC002) vectors respectively (Supplementary Table S6), packaged using Lenti-X293T (Clontech). Transduced cells were selected with 2 μg/mL puromycin. These cells were cultured in DMEM 4.5 g/L D-Glucose, L-Glutamine and 110 mg/L Sodium Pyruvate (Gibco, #11995065) supplemented with 10% fetal bovine serum, 1× Antibiotic-Antimycotic solution (Sigma-Aldrich, #A5955) and 1× MEM nonessential amino acids (Sigma-Aldrich, #M7145). Incubation of all cells occurred at 37 °C and 5% CO2.
Neuroblastoma cells were seeded in 384-well plates at different densities ranging from 1200 to 5000 cells/well and allowed to adhere overnight. RPE and HEK293T were seeded at 200 and 600 cells/well, respectively. Compound treatment was performed using the D300e Digital Dispenser (Tecan) in duplicate or triplicate and cell confluency was monitored over time using the IncuCyte Live-cell imaging system (Sartorius). […] Mean normalized confluences were calculated from 3 individual experiments.
All dose–response curves were computed on GraphPad Prism using the Variable Slope (four parameters) equation. Absolute half-maximal degradation (DC50), growth inhibitory (GI50) and enzymatic inhibitory (IC50) concentrations, as well as inhibition constants (Ki) were derived from dose–response curves via interpolation. Statistical tests were performed on GraphPad Prism and detailed in the figure legends. Unless otherwise stated, “n” in the figure legends indicates the number of independent experiments conducted at different times.

In test [7] the test system is MYCN. The test is described as follows: MYCN protein levels, Simple Western. It counts as cell-based, human. The settings on record: for MYCN codepletion: IMR-32, 500 nM, 24h postexposure; for DC50: read-out: MYCN DC50 24h. The procedure:
Cells were seeded in T-25 flasks at different densities ranging from 1 to 2 million cells per flask and allowed to adhere for 1–2 days. In experiments involving compound treatment, this was done by medium replacement containing the compound(s) of interest in their corresponding concentrations. In competition binding experiments, cells were first pretreated with an excess of MK-5108, thalidomide or MG-132 for 1 h by shaking gently at room temperature prior to addition of SK4454 or SK5527. All samples were normalized to contain the same percentage of DMSO as the negative DMSO controls. Cells were harvested on ice at their respective time points by scraping, washed with ice-cold PBS to collect remaining cells, and centrifuged (2500 rpm, 4 °C). A second washing and centrifugation step was performed prior to collection of the final cell pellets which were then snap-frozen in liquid nitrogen and kept frozen at −80 °C until further processing. Lysis of cell pellets occurred in cold RIPA buffer (0.5% w/v Sodium Deoxycholate, 150 mM NaCl, 50 mM TrisHCl pH 7.5, 0.1% w/v SDS, 1% w/v NP-40) supplemented with protease and phosphatase inhibitors (Roche, #11836145001, #04906845001) by rotating gently at 4 °C for 1h, followed by a centrifugation step for 10 min (10,000 rpm, 4 °C). The supernatant was collected and concentrations of the obtained protein lysates were measured using the Pierce BCA Protein Assay Kit (Thermo Fisher Scientific, #23227).
Simple Western analyses were performed with the Wes instrument (Bio-Techne) using the 12–230 kDa Wes Separation module and the EZ standard pack reagent 1 (Biotechne, #SM-W001, #PS-ST01EZ-8) following the manufacturer’s protocol. Protein lysates were loaded at 0.8 μg/μL under denaturing conditions (0.2 μg/μL for MYCN detection). Chemiluminescence peaks were generated by the Compass Software (Bio-Techne) and the area under the peaks calculated using the Gaussian fit method. Per lane, quantified data were always normalized to that of the loading control (Vinculin) prior to calculating fold changes relative to the negative DMSO control. Mean fold changes are calculated from 3 individual experiments. A list of the primary and secondary antibodies used can be found in the Supporting Information (Supplementary Table S7).
as §2

T1 sequence (Q96SW2 whole entry): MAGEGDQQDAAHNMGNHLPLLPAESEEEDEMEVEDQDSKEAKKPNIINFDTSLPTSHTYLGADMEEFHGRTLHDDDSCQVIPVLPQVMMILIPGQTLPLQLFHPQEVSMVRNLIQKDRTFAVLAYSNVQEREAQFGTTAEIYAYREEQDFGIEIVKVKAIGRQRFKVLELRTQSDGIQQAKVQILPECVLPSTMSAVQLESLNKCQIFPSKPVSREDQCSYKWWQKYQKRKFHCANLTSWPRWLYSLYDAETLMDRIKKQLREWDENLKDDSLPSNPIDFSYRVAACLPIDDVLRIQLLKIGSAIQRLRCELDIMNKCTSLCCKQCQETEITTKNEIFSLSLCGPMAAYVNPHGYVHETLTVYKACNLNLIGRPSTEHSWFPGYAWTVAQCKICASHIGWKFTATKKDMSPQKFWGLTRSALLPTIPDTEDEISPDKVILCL

`O=C1CCC(Nc2ccc(N3CCN(C4CN(C(=O)[C@]5(Cc6cccc(Nc7nccs7)n6)CC[C@@H](Oc6cccc(Cl)c6F)CC5)C4)CC3)c(F)c2)C(=O)N1` (some centres unmarked) [PROTAC 18]: affinity in test [1] was put at a Ki of 1210 nM.
In test [1], `O=C1CCN(c2ccc(N3CCN(CC4CCN(C(=O)[C@]5(Cc6cccc(Nc7nccs7)n6)CC[C@@H](Oc6cccc(Cl)c6F)CC5)CC4)CC3)nc2)C(=O)N1` [PROTAC 24] registered a Ki of 4300 nM. In test [2], affinity was put at a Ki of 1 nM and the “binding selectivity for AURKA over AURKB” value is listed as “more than 2000 fold”.
Consider `O=C1CCC(N2C(=O)c3cccc(OCCOCCOCCOCCNC(=O)[C@]4(Cc5cccc(Nc6nccs6)n5)CC[C@@H](Oc5cccc(Cl)c5F)CC4)c3C2=O)C(=O)N1` (some centres unmarked) [SK2188, reference compound], for which the GI50 in test [3] is 173 nM; in test [4], 3180 nM; in test [5], 1580 nM; in test [6], 3730 nM. Moreover, the Ki in test [1] was 273 nM; in test [2], 2 nM. Besides, the “binding selectivity for AURKA over AURKB” value in test [2] is recorded as “more than 2000 fold”.
In test [7], `Cc1cc(Nc2ccc(F)c(CC3(C(=O)N4CCC(CN5CCN(c6ccc(N7CCC(=O)NC7=O)cn6)CC5)CC4)CCN(Cc4cccc(Cl)c4F)CC3)n2)n[nH]1` [SK4454] displayed an MYCN codepletion of roughly 50%. The DC50 stood at 117 nM in test [7] (IMR-32), 1360 nM in test [7] (NGP) and 1390 nM in test [7] (SJNB-8). For the same compound, the GI50 in test [3] was less than 100 nM; in test [4], 994 nM; in test [5], 430 nM; in test [6], 1110 nM. For the same compound, in test [6], the “growth-inhibitory activity upon cotreatment with tariquidar (in words)” value was “comparable to AURKA inhibitor TAS-119”. Further, the figures for the Ki in test [1] and in test [2] were 4060 nM and 1 nM, respectively. For the same compound, in test [2], the “binding selectivity for AURKA over AURKB” value is given as “more than 2000 fold”.
Turning to `Cc1cc(Nc2ccc(F)c(CC3(C(=O)N4CCC(F)(CN5CCN(c6ccc(N7CCC(=O)NC7=O)cn6)CC5)CC4)CCN(Cc4cccc(Cl)c4F)CC3)n2)n[nH]1` [SK5527], the MYCN codepletion in test [7] is roughly 50%. Also, the DC50 turned out to be 236 nM in test [7] (IMR-32), 89 nM in test [7] (NGP) and 772 nM in test [7] (SJNB-8). The GI50 in test [3] was less than 100 nM; in test [4], 654 nM; in test [5], 244 nM; in test [6], 477 nM. Besides, the “growth-inhibitory activity upon cotreatment with tariquidar (in words)” value in test [6] is “comparable to AURKA inhibitor TAS-119”. Also, the Ki is 1130 nM in test [1] and 2 nM in test [2]. The “binding selectivity for AURKA over AURKB” value in test [2] was “more than 2000 fold”.

The Ki is a measure of affinity in units of concentration, obtained from inhibition or displacement. Lower therefore signals tighter binding. The term GI50 denotes the concentration giving 50% growth inhibition.
